Consider seven cell lines from the supplement of paper PMC10307832.

Holding throughout (test): relative viability (nuclei count vs DMSO), 5 days (fraction); higher = more cells survive
Compound in experiment [1]: CC1=NN=C(O1)C2=NN=C(C=C2)N3CCC(CC3)OC4=C(C=CC(=C4)F)Cl + Nc1nc2[nH]cc(CCc3ccc(C(=O)N[C@@H](CCC(=O)O)C(=O)O)cc3)c2c(=O)[nH]1 [Pemetrexed] (partner 0.2 µM)
The procedure, abridged: (§1)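 Values are medians from duplicate plates. Each reflects relative viability, defined as the nuclei count of treated wells over that of vehicle wells. Lung cancer cell lines in 1536-well plates were pin-tool dosed one day after seeding with one drug alone or with a fixed anchor-drug dose plus five library-drug doses (not always all listed) in √10 steps, then fixed, stained and imaged at 4× after 5 days.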

Compound in the experiment “Tosedostat + Dasatinib”: CC(C)C[C@@H](C(=O)N[C@H](C(=O)OC1CCCC1)c1ccccc1)[C@H](O)C(=O)NO [Tosedostat] + Cc1nc(Nc2ncc(C(=O)Nc3c(C)cccc3Cl)s2)cc(N2CCN(CCO)CC2)n1 [Dasatinib] (partner 0.075 µM)
The procedure, abridged: as §1

Compound in experiment [2]: CC1=NN=C(O1)C2=NN=C(C=C2)N3CCC(CC3)OC4=C(C=CC(=C4)F)Cl + Cc1cc(Nc2cc(N3CCN(C)CC3)nc(Sc3ccc(NC(=O)C4CC4)cc3)n2)n[nH]1 [Tozasertib] (partner 0.1 µM)
The procedure, abridged:
as §1

Compound in experiment [3]: CC1=NN=C(O1)C2=NN=C(C=C2)N3CCC(CC3)OC4=C(C=CC(=C4)F)Cl + CC(C)C[C@H](NC(=O)[C@H](Cc1ccccc1)NC(=O)c1cnccn1)B(O)O [Bortezomib] (partner 0.002 µM)
Put shortly: as §1

On to NCI-H2405, for which the relative viability was 0.595 in experiment [1] (first compound 0.253 µM); 0.562 in experiment [1] (first compound 0.8 µM); 0.563 in experiment [1] (first compound 2.53 µM); 0.594 in experiment [1] (first compound 8 µM); 0.221 with Tosedostat + Dasatinib (first compound 0.02 µM); 0.266 with Tosedostat + Dasatinib (first compound 0.06325 µM). Also, the relative viability came to 0.218 with Tosedostat + Dasatinib (first compound 0.2 µM); 0.211 with Tosedostat + Dasatinib (first compound 0.6325 µM); 0.164 in the experiment with Tosedostat + Dasatinib (first compound 2 µM); 0.415 in experiment [2] (first compound 0.253 µM); 0.325 in experiment [2] (first compound 0.8 µM); 0.395 in experiment [2] (first compound 2.53 µM). Also, the relative viability was 0.424 in experiment [2] (first compound 8 µM); 0.468 in experiment [3] (first compound 0.253 µM); 0.415 in experiment [3] (first compound 0.8 µM); 0.47 in experiment [3] (first compound 2.53 µM); 0.453 in experiment [3] (first compound 8 µM).
Turning to NCI-H3122, the relative viability in experiment [1] (first compound 0.253 µM) was 0.138; in experiment [1] (first compound 0.8 µM), 0.142; in experiment [1] (first compound 2.53 µM), 0.16; in experiment [1] (first compound 8 µM), 0.143; in the experiment with Tosedostat + Dasatinib (first compound 0.02 µM), 0.745; with Tosedostat + Dasatinib (first compound 0.06325 µM), 0.912. Further, the relative viability with Tosedostat + Dasatinib (first compound 0.2 µM) turned out to be 0.925; with Tosedostat + Dasatinib (first compound 0.6325 µM), 0.915; in the experiment with Tosedostat + Dasatinib (first compound 2 µM), 0.711; in experiment [2] (first compound 0.253 µM), 0.151; in experiment [2] (first compound 0.8 µM) it was 0.137; in experiment [2] (first compound 2.53 µM), 0.144. The relative viability was found to be 0.155 in experiment [2] (first compound 8 µM); 0.662 in experiment [3] (first compound 0.253 µM); 0.707 in experiment [3] (first compound 0.8 µM); 0.71 in experiment [3] (first compound 2.53 µM); 0.566 in experiment [3] (first compound 8 µM).
On to PC-3 [JPC-3], for which the relative viability in experiment [1] (first compound 0.253 µM) is 1.05; in experiment [1] (first compound 0.8 µM) it was 0.816; in experiment [1] (first compound 2.53 µM), 1.06; in experiment [1] (first compound 8 µM), 0.791; with Tosedostat + Dasatinib (first compound 0.02 µM), 0.999; in the experiment with Tosedostat + Dasatinib (first compound 0.06325 µM), 1.06. Further, the relative viability with Tosedostat + Dasatinib (first compound 0.2 µM) was 0.929; in the experiment with Tosedostat + Dasatinib (first compound 0.6325 µM), 0.621; in the experiment with Tosedostat + Dasatinib (first compound 2 µM), 0.7; in experiment [2] (first compound 0.253 µM) it was 0.774; in experiment [2] (first compound 0.8 µM), 0.813; in experiment [2] (first compound 2.53 µM), 0.797. In addition, the relative viability in experiment [2] (first compound 8 µM) was 0.67; in experiment [3] (first compound 0.253 µM), 0.519; in experiment [3] (first compound 0.8 µM), 0.614; in experiment [3] (first compound 2.53 µM), 0.726; in experiment [3] (first compound 8 µM) it was 0.666.
Take PC-14: the relative viability in experiment [1] (first compound 0.253 µM) turned out to be 0.139; in experiment [1] (first compound 0.8 µM), 0.117; in experiment [1] (first compound 2.53 µM) it was 0.153; in experiment [1] (first compound 8 µM), 0.121; in the experiment with Tosedostat + Dasatinib (first compound 0.02 µM), 0.245; with Tosedostat + Dasatinib (first compound 0.06325 µM) it was 0.237. Moreover, the relative viability was found to be 0.263 in the experiment with Tosedostat + Dasatinib (first compound 0.2 µM); 0.192 with Tosedostat + Dasatinib (first compound 0.6325 µM); 0.208 in the experiment with Tosedostat + Dasatinib (first compound 2 µM); 0.523 in experiment [2] (first compound 0.253 µM); 0.433 in experiment [2] (first compound 2.53 µM); 0.557 in experiment [2] (first compound 8 µM). The relative viability stood at 0.782 in experiment [3] (first compound 0.253 µM), 0.655 in experiment [3] (first compound 0.8 µM), 0.681 in experiment [3] (first compound 2.53 µM) and 0.741 in experiment [3] (first compound 8 µM).
As for RERF-LC-KJ, the relative viability in experiment [1] (first compound 0.253 µM) turned out to be 0.446; in experiment [1] (first compound 0.8 µM) it was 0.43; in experiment [1] (first compound 2.53 µM), 0.438; in experiment [1] (first compound 8 µM), 0.455; with Tosedostat + Dasatinib (first compound 0.02 µM) it was 0.873; with Tosedostat + Dasatinib (first compound 0.06325 µM), 0.77. In addition, the relative viability with Tosedostat + Dasatinib (first compound 0.2 µM) is 0.771; with Tosedostat + Dasatinib (first compound 0.6325 µM), 0.623; with Tosedostat + Dasatinib (first compound 2 µM) it was 0.511; in experiment [2] (first compound 0.253 µM) it was 0.341; in experiment [2] (first compound 0.8 µM), 0.351; in experiment [2] (first compound 2.53 µM), 0.367. Moreover, the relative viability in experiment [2] (first compound 8 µM) worked out at 0.322; in experiment [3] (first compound 0.253 µM), 0.776; in experiment [3] (first compound 0.8 µM) it was 0.9; in experiment [3] (first compound 2.53 µM) it was 0.929; in experiment [3] (first compound 8 µM) it was 0.969.
Consider SK-LU-1, for which the relative viability was 1.03 in experiment [1] (first compound 0.253 µM); 0.9 in experiment [1] (first compound 0.8 µM); 0.867 in experiment [1] (first compound 2.53 µM); 0.829 in experiment [1] (first compound 8 µM); 0.184 with Tosedostat + Dasatinib (first compound 0.02 µM); 0.191 with Tosedostat + Dasatinib (first compound 0.06325 µM). Besides, the relative viability with Tosedostat + Dasatinib (first compound 0.2 µM) is 0.219; with Tosedostat + Dasatinib (first compound 0.6325 µM) it was 0.197; in the experiment with Tosedostat + Dasatinib (first compound 2 µM), 0.203; in experiment [2] (first compound 0.253 µM), 0.325; in experiment [2] (first compound 2.53 µM) it was 0.275; in experiment [2] (first compound 8 µM) it was 0.25. Also, the relative viability in experiment [3] (first compound 0.253 µM) stood at 1.08; in experiment [3] (first compound 0.8 µM) it was 0.86; in experiment [3] (first compound 2.53 µM), 1.12; in experiment [3] (first compound 8 µM), 1.02.
In the case of SW 1573, the relative viability in experiment [1] (first compound 0.253 µM) was determined as 0.819; in experiment [1] (first compound 0.8 µM), 0.881; in experiment [1] (first compound 2.53 µM), 0.828; in experiment [1] (first compound 8 µM) it was 0.534; in the experiment with Tosedostat + Dasatinib (first compound 0.02 µM), 0.572; in the experiment with Tosedostat + Dasatinib (first compound 0.06325 µM), 0.36. Further, the relative viability with Tosedostat + Dasatinib (first compound 0.2 µM) was 0.368; in the experiment with Tosedostat + Dasatinib (first compound 0.6325 µM), 0.317; with Tosedostat + Dasatinib (first compound 2 µM) it was 0.314; in experiment [2] (first compound 0.253 µM), 0.131; in experiment [2] (first compound 0.8 µM) it was 0.13; in experiment [2] (first compound 2.53 µM), 0.181. The relative viability in experiment [2] (first compound 8 µM) was 0.246; in experiment [3] (first compound 0.253 µM), 0.865; in experiment [3] (first compound 0.8 µM), 0.834; in experiment [3] (first compound 2.53 µM) it was 1.01; in experiment [3] (first compound 8 µM) it was 1.15.
